Laboratory results published in US10478482B2, “Vaccines for prevention and treatment of tuberculosis” (ALARUM DEVELOPMENT LTD, priority 2011, dated 2019).

Key:
[1] = tested on: serum from patients with sarcoidosis; assay: Antibody recognition of peptides by serum from patients with sarcoidosis; assay type: binding, human; settings: for Average int. / N. of slide (frequency of recognition): serum from the group sarcoidosis; for N. of slide (frequency of recognition): out of 9 individuals
Description: (§1) Serum was obtained from patients with sarcoidosis (FIG. 4A) and from patients with TB (FIG. 4B). The number indicate the frequency of recognition, e.g. 1/9 individuals up to 9/9 individuals. The listed peptides are only listed if they are present in one group (sarcoidosis versus tuberculosis) and if the peptide is never recognized in any serum from the respective control group. […] Strong IgG response requires strong T-cell help which lends support that these antigens are also recognized by T-cells.

[2] = tested on: serum from patients with TB; assay: Antibody recognition of peptides by serum from patients with TB; assay type: binding, human; settings: for Average int. / N. of slide (frequency of recognition): serum from the group TB; for N. of slide (frequency of recognition): out of 9 individuals
Description: as §1

PBMCs = assay type: cell-based, monkey
[3] = tested on: IFNγ production in freshly harvested Heparin-blood; assay type: cell-based, human
peritoneal macrophages = assay: Cytokine induction in peritoneal macrophages; assay type: cell-based, mouse; settings: FIG. 10

Substance | Average int. [1] | N. of slide (frequency of recognition) [1] | Average int. [2] | N. of slide (frequency of recognition) [2] | other results
NANFGGGNGSAFHGQ [CAE55320-PPE family protein_205] | 1.4131 | 9 | – | – | –
APALMDVEAAYEQMW [CAE55281-PPE family protein_133] | 1.6787 | 9 | – | – | –
GLYQVVPGIYQVRGF [CAA18084-possible hydrolase_85] | – | – | 0.5432 | 8 | –
TRLGIRLVIVLVRRW [CAB05419-possible glycosyl transferase_241] | – | – | 0.9264 | 9 | –
Possible glycosyltransferase [CAB05419/Rv2957] | – | – | – | – | recognition by serum from the group sarcoidosis (in words) [1]: never; recognition by serum from the group TB (in words) [2]: most frequently recognized; intracellular cytokines, here represented by IL-2 (PBMCs): Detection of intracellular cytokines; antigen-specific T-cell responses (IFNγ) [3]: can be detected; induction of IL-10 (peritoneal macrophages): little induction; induction of IL-12 (peritoneal macrophages): Strong induction; induction of TGF-β (peritoneal macrophages): Strong induction; induction of TN-Fa (peritoneal macrophages): little induction
VIGGIGPIHVQPIDI [CAE55585-PPE family protein_865] | 0.7433 | 9 | – | – | –
GGGNTGSGNIGNGNK [CAE55613-PPE family protein_193] | 1.2266 | 9 | – | – | –
SSGKPGRDPEAGRYG [CAB02482-probable lipase lipe_385] | 1.3190 | 9 | – | – | –
MTAPVWLASPPEVHS [CAE55538-PPE family protein_1] | – | – | 0.8461 | 8 | –
NTGSYNMGDFNPGSS [CAE55416-PPE family protein_385] | – | – | 0.9479 | 7 | –
AAGNNVTVFGYSQSA [CAE55427-PPE family protein_289] | – | – | 0.4545 | 6 | –
AWVSRGAHKLVGALE [CAB10951-cytotoxin haemolysin homologue TLYA_61] | – | – | 0.7175 | 7 | –
QWILHMAKLSAAMAK [CAA17973-conserved hypothetical alanine and_193] | – | – | 0.4333 | 6 | –
GSSAMILAAYHPQQF [CAB10044-secreted antigen 85-B FBPB (85B)A_169] | 0.6077 | 9 | – | – | –
LSGDNQQGFNFAGGW [CAE55276-PPE family protein_1117] | 1.6435 | 9 | – | – | –
